Measured values as given in ChEMBL document CHEMBL2057161, “Synthesis and evaluation of nitric oxide-releasing DDB derivatives as potential Pgp-mediated MDR reversal agents in MCF-7/Adr cells” (Bioorg Med Chem Lett, 2012).
Active and inactive are the calls of the source. No cut-off for these calls is given here.

How the values were obtained:
HepG2 = test: Antiproliferative activity against human HepG2 cells after 48 hrs by MTT assay; format: functional, cell-based; details: HepG2, 48 h
[1] = target: T1, ATP-dependent translocase ABCB1 (Homo sapiens, UniProt P08183); test: Inhibition of P-glycoprotein overexpressed in human MCF7/ADR cells assessed as increase in doxorubicin accumulation at 25 uM incubated for 1.5 hrs prior to doxorubicin treatment measured after 1.5 hrs by HPLC analysis; format: cell-based; details: nci/adr-res
T1 sequence (P08183 whole entry): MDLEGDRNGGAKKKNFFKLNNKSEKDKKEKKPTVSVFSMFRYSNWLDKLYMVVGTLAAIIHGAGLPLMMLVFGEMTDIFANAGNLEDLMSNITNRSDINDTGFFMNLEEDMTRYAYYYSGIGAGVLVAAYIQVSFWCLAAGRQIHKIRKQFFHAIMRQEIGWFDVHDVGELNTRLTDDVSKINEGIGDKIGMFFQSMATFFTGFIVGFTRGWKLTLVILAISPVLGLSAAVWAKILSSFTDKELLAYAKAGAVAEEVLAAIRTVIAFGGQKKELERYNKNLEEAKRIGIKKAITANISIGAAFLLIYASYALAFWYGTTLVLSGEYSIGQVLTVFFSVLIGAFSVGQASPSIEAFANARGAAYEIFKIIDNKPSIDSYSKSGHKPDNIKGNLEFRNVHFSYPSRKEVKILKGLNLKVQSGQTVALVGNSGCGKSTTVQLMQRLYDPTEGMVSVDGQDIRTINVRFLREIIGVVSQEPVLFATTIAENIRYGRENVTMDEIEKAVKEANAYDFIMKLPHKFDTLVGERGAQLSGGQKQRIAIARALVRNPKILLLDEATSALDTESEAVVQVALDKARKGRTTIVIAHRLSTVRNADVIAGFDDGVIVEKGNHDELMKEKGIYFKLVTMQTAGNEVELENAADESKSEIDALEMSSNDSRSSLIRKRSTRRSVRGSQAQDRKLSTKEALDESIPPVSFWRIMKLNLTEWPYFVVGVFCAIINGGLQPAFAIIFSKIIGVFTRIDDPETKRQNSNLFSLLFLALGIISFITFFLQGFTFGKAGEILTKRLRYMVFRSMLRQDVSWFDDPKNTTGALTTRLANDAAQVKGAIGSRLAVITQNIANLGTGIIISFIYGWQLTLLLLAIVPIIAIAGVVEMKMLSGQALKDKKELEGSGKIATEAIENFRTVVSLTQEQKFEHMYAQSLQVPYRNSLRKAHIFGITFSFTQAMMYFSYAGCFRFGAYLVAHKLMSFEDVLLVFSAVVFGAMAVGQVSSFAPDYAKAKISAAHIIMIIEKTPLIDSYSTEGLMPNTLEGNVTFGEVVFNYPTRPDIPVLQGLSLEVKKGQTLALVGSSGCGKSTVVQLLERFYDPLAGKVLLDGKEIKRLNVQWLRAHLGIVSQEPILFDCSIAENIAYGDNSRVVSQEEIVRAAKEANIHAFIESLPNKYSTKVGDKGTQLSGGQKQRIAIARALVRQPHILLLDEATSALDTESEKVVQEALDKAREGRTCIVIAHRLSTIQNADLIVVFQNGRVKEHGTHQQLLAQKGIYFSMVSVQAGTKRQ

[2] = target: T1, ATP-dependent translocase ABCB1; test: Inhibition of P-glycoprotein in human MCF7/ADR cells assessed as potentiation of doxorubicin antiproliferative activity after 48 hrs by MTT assay; format: cell-based; details: nci/adr-res
[3] = target: T1, ATP-dependent translocase ABCB1; test: Inhibition of P-glycoprotein in human MCF7 assessed as increase in doxorubicin accumulation at 25 uM incubated for 1.5 hrs prior to doxorubicin treatment measured after 1.5 hrs by HPLC analysis; details: mcf7, 1.5 h
NCI/ADR-RES [4] = test: Induction of nitric oxide release in human MCF7/ADR cells at 25 uM by Griess method; format: functional, cell-based
[5] = target: T1, ATP-dependent translocase ABCB1; test: Inhibition of P-glycoprotein overexpressed in human MCF7/ADR cells assessed as increase in doxorubicin accumulation at 25 uM incubated for 1.5 hrs prior to doxorubicin treatment measured after 1.5 hrs by HPLC analysis in presence of hemoglobin; format: cell-based; details: nci/adr-res
[6] = target: T1, ATP-dependent translocase ABCB1; test: Inhibition of P-glycoprotein in human MCF7 assessed as increase in doxorubicin accumulation at 25 uM incubated for 1.5 hrs prior to doxorubicin treatment measured after 1.5 hrs by HPLC analysis in presence of hemoglobin; details: mcf7, 1.5 h
[7] = target: T1, ATP-dependent translocase ABCB1; test: Inhibition of P-glycoprotein overexpressed in human Caco2 cells assessed as increase in digoxin accumulation at 5 to 25 uM incubated for 1.5 hrs prior to digoxin treatment measured after 1.5 hrs by LC/MS/MS analysis in presence of hemoglobin; format: cell-based; details: caco-2, 1.5 h
[8] = target: T1, ATP-dependent translocase ABCB1; test: Inhibition of P-glycoprotein overexpressed in human Caco2 cells assessed as increase in digoxin permeability at 25 uM incubated for 90 mins prior to digoxin treatment measured after 90 mins by LC/MS/MS analysis; format: cell-based; details: caco-2, 1.5 h
[9] = target: T1, ATP-dependent translocase ABCB1; test: Inhibition of P-glycoprotein overexpressed in human Caco2 cells assessed as decrease in digoxin efflux at 25 uM incubated for 90 mins prior to digoxin treatment measured after 90 mins by LC/MS/MS analysis; format: cell-based; details: caco-2, 1.5 h
[10] = Downregulation of doxorubicin-induced P-glycoprotein expression in human MCF7/ADR cells at 25 uM after 48 hrs by Western blot analysis; format: functional, cell-based; details: NCI/ADR-RES
MCF7 = test: Antiproliferative activity against human MCF7 up to 25 uM cells after 48 hrs by MTT assay; format: functional, cell-based
NCI/ADR-RES [11] = test: Antiproliferative activity against human MCF7/ADR up to 25 uM cells after 48 hrs by MTT assay; format: functional, cell-based

COC(=O)c1cc(OC)c2c(c1-c1c(C(=O)NCCC(=O)OCCOc3no[n+]([O-])c3S(=O)(=O)c3ccccc3)cc(OC)c3c1OCO3)OCO2
IC50 (HepG2): 1350 nM

C[C@H](N)C(=O)OCCCCOc1no[n+]([O-])c1S(=O)(=O)c1ccccc1
inhibition (INH) [1]: Active

C[C@H](N)C(=O)OCCOCCOc1no[n+]([O-])c1S(=O)(=O)c1ccccc1
inhibition (INH) [1]: Active

COC(=O)c1cc(OC)c2c(c1-c1c(C(=O)NCCC(=O)OCCCCOc3no[n+]([O-])c3S(=O)(=O)c3ccccc3)cc(OC)c3c1OCO3)OCO2
IC50 (HepG2): 1360 nM

COC(=O)c1cc(OC)c2c(c1-c1c(C(=O)NCCC(=O)OC(C)CCOc3no[n+]([O-])c3S(=O)(=O)c3ccccc3)cc(OC)c3c1OCO3)OCO2 (configuration not stated)
IC50 (HepG2): 1150 nM

O=c1[nH]cc(F)c(=O)[nH]1 [FLUOROURACIL]
IC50 (HepG2): 15900 nM

COC(=O)c1cc(OC)c2c(c1-c1c(C(=O)NCCC(=O)NCCOc3no[n+]([O-])c3S(=O)(=O)c3ccccc3)cc(OC)c3c1OCO3)OCO2
IC50 (HepG2): 1250 nM

COC(=O)c1cc(OC)c2c(c1-c1c(C(=O)NCCC(=O)OCCOCCOc3no[n+]([O-])c3S(=O)(=O)c3ccccc3)cc(OC)c3c1OCO3)OCO2
IC50 (HepG2): 1880 nM

COC(=O)c1cc(OC)c2c(c1-c1c(C(=O)N[C@@H](C)C(=O)OCCCOc3no[n+]([O-])c3S(=O)(=O)c3ccccc3)cc(OC)c3c1OCO3)OCO2
IC50 (HepG2): 1250 nM

COC(=O)c1cc(OC)c2c(c1-c1c(C(=O)NCCC(=O)OC(C)(C)CCOc3no[n+]([O-])c3S(=O)(=O)c3ccccc3)cc(OC)c3c1OCO3)OCO2
IC50 (HepG2): 1360 nM

COC(=O)c1cc(OC)c2c(c1-c1c(C(=O)N[C@@H](C)C(=O)OCCOCCOc3no[n+]([O-])c3S(=O)(=O)c3ccccc3)cc(OC)c3c1OCO3)OCO2
IC50 (HepG2): 1490 nM
inhibition (INH) [2]: Dose-dependent effect
inhibition (INH) [1]: Active
inhibition (INH) [3]: Not Active
Activity (NCI/ADR-RES [4]): Active
inhibition (INH) [5]: Not Active
inhibition (INH) [6]: Not Active
inhibition (INH) [7]: Not Active
inhibition (INH) [8]: Active
inhibition (INH) [9]: Active
Activity [10]: Active
Activity (MCF7): inactive
Activity (NCI/ADR-RES [11]): inactive

COC(=O)c1cc(OC)c2c(c1-c1c(C(=O)NCCC(=O)OCCCOc3no[n+]([O-])c3S(=O)(=O)c3ccccc3)cc(OC)c3c1OCO3)OCO2
IC50 (HepG2): 1140 nM

COC(=O)c1cc(OC)c2c(c1-c1c(C(=O)N[C@@H](C)C(=O)OCCCCOc3no[n+]([O-])c3S(=O)(=O)c3ccccc3)cc(OC)c3c1OCO3)OCO2
IC50 (HepG2): 1210 nM
inhibition (INH) [2]: Dose-dependent effect
inhibition (INH) [1]: Active
inhibition (INH) [3]: Not Active
Activity (NCI/ADR-RES [4]): Active
inhibition (INH) [5]: Not Active
inhibition (INH) [6]: Not Active
inhibition (INH) [7]: Not Active
inhibition (INH) [8]: Active
inhibition (INH) [9]: Active
Activity [10]: Active
Activity (MCF7): inactive
Activity (NCI/ADR-RES [11]): inactive
